In patent US9833497B2, “Human originated EGF domain proteins and use of the same” (CHENGDU SOURCEBIO LIMITED-LIABILITY COMPANY, priority 2013, dated 2017):

Tests used:
Format in all cases: cell-based
[1] = test system: E. coli BL21; experiment: MIC against Gram-negative bacteria: E. coli BL21; settings: for MIC E. coli BL21: two-fold serial dilution
Summary of the method: (§1)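 First, colonies from LB agar were grown in LB at 37° C, 185 rpm, to McFarland turbidity 0.5, then centrifuged and resuspended in fresh LB. Next, wells received 5×10^5 CFU/mL bacteria plus two-fold serially diluted EGF domain protein (triplicate). Finally, plates were shaken at 37° C and the no-growth concentration taken as MIC.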

[2] = test system: Citrobacter diversus; experiment: MIC against Gram-negative bacteria: Citrobacter diversus; settings: for MIC: C. diversus; for MIC C. diversus: two-fold serial dilution
Summary of the method: as §1

[3] = test system: Klebsiella pneumonia; experiment: MIC against Gram-negative bacteria: Klebsiella pneumonia; settings: for MIC: K. pneumonia; for MIC K. pneumonia: two-fold serial dilution
Summary of the method: as §1

[4] = test system: Moraxella catarrhalis; experiment: MIC against Gram-negative bacteria: Moraxella catarrhalis; settings: for MIC: M. catarrhalis; for MIC M. catarrhalis: two-fold serial dilution
Summary of the method: as §1

[5] = test system: Pseudomonas aeruginosa; experiment: MIC against Gram-negative bacteria: Pseudomonas aeruginosa; settings: for MIC: P. aeruginosa; for MIC P. aeruginosa: two-fold serial dilution
Summary of the method: as §1

[6] = test system: Proteus vulgaris; experiment: MIC against Gram-negative bacteria: Proteus vulgaris; settings: for MIC: P. vulgaris; for MIC P. vulgaris: two-fold serial dilution
Summary of the method: as §1

[7] = test system: Proteus mirabilis; experiment: MIC against Gram-negative bacteria: Proteus mirabilis; settings: for MIC: P. mirabilis; for MIC P. mirabilis: two-fold serial dilution
Summary of the method: as §1

[8] = test system: E. coli DH5α; experiment: Antibacterial activity: MIC and growth curve against E. coli DH5α in 96-well plate; settings: minimal inhibitory concentration against E. coli DH5α; 96-well plate, 5×10^5 CFU/mL, 37° C., judged after 8 h
Summary of the method: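 Log-phase DH5α (OD600 about 0.5, 37° C, 185 rpm in LB) was pelleted, resuspended in fresh LB and seeded at 5×10^5 CFU/mL with recombinant protein at 50, 25 and 12.5 μg/mL (two-fold series), in triplicate. Plates were shaken at 175 rpm, 37° C, and OD600 was read every 30 min. MIC was the lowest concentration with no growth.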

[9] = test system: Serratia marcescens; experiment: MIC against Gram-negative bacteria: Serratia marcescens; settings: for MIC: S. marcescens; for MIC S. marcescens: two-fold serial dilution
Summary of the method: as §1

[10] = test system: Enterobacter cloacae; experiment: MIC against Gram-negative bacteria: Enterobacter cloacae; settings: for MIC: E. cloacae; for MIC E. cloacae: two-fold serial dilution
Summary of the method: as §1

[11] = test system: Aeromonas hydrophila; experiment: MIC against Gram-negative bacteria: Aeromonas hydrophila; settings: for MIC: A. hydrophila; for MIC A. hydrophila: two-fold serial dilution
Summary of the method: as §1

[12] = E. coli BL21, 10 h cultivation at 37° C.
[13] = 10 h cultivation at 37° C., 5×10^5 CFU/mL

PRT930 (NFDDCASNPCIHGICMDGINRYSCVCSPGFTGQRCN; listed as Homo sapiens)
MIC [1, 12]: 12.5 µg/mL
MIC ([2]; 10 h cultivation at 37° C.): 25 µg/mL
MIC ([3]; 10 h cultivation at 37° C.): 50 µg/mL
MIC ([4]; 10 h cultivation at 37° C.): 50 µg/mL
MIC ([5]; 10 h cultivation at 37° C.): 25 µg/mL
MIC ([6]; 10 h cultivation at 37° C.): 12.5 µg/mL
MIC ([7]; 10 h cultivation at 37° C.): 25 µg/mL
MIC [8]: 50 µg/mL
MIC ([9]; 10 h cultivation at 37° C.): 50 µg/mL
MIC ([10]; 10 h cultivation at 37° C.): 12.5 µg/mL
MIC ([11]; 10 h cultivation at 37° C.): 25 µg/mL

PRT902 (DIDDCRPNPCHNGGSCTDGINTAFCDCLPGFRGTFCE; listed as Homo sapiens)
MIC [1, 12]: 25 µg/mL
MIC ([2]; 10 h cultivation at 37° C.): 50 µg/mL
MIC ([3]; 10 h cultivation at 37° C.): 25 µg/mL
MIC ([4]; 10 h cultivation at 37° C.): 25 µg/mL
MIC ([5]; 10 h cultivation at 37° C.): 12.5 µg/mL
MIC ([6]; 10 h cultivation at 37° C.): 25 µg/mL
MIC ([7]; 10 h cultivation at 37° C.): 12.5 µg/mL
MIC [8]: 50 µg/mL
MIC ([9]; 10 h cultivation at 37° C.): 50 µg/mL
MIC ([10]; 10 h cultivation at 37° C.): 50 µg/mL
MIC ([11]; 10 h cultivation at 37° C.): 12.5 µg/mL

PRT1382 (GVRSCPRGCSQRGRCKDGRCVCDPGYTGEDC; listed as Homo sapiens)
MIC against E. coli BL21 ([1]; E. coli BL21, 5×10^5 CFU/mL, 10 h cultivation at 37° C.): 12.5 µg/mL
MIC against C. diversus ([2]; Citrobacter diversus, 5×10^5 CFU/mL, 10 h cultivation at 37° C.): 50 µg/mL
MIC against K. pneumonia ([3]; Klebsiella pneumonia, 5×10^5 CFU/mL, 10 h cultivation at 37° C.): 100 µg/mL
MIC against M. catarrhalis ([4]; Moraxella catarrhalis, 5×10^5 CFU/mL, 10 h cultivation at 37° C.): 12.5 µg/mL
MIC against P. aeruginosa ([5]; Pseudomonas aeruginosa, 5×10^5 CFU/mL, 10 h cultivation at 37° C.): 50 µg/mL
MIC against P. vulgaris ([6]; Proteus vulgaris, 5×10^5 CFU/mL, 10 h cultivation at 37° C.): 25 µg/mL
MIC against P. mirabilis ([7]; Proteus mirabilis, 5×10^5 CFU/mL, 10 h cultivation at 37° C.): 12.5 µg/mL
MIC [8]: 25 µg/mL
MIC against S. marcescens ([9]; Serratia marcescens, 5×10^5 CFU/mL, 10 h cultivation at 37° C.): 12.5 µg/mL
MIC against E. cloacae ([10]; Enterobacter cloacae, 5×10^5 CFU/mL, 10 h cultivation at 37° C.): 50 µg/mL
MIC against A. hydrophila ([11]; Aeromonas hydrophila, 5×10^5 CFU/mL, 10 h cultivation at 37° C.): 12.5 µg/mL

PRT1192 (DIDECASNPCAAGGTCVDQVDGFECICPEQWVGATCQ; listed as Homo sapiens)
MIC E. coli BL21 [1, 13]: 12.5 µg/mL
MIC C. diversus [2, 13]: 50 µg/mL
MIC K. pneumonia [3, 13]: 50 µg/mL
MIC M. catarrhalis [4, 13]: 25 µg/mL
MIC P. aeruginosa [5, 13]: 25 µg/mL
MIC P. vulgaris [6, 13]: 50 µg/mL
MIC P. mirabilis [7, 13]: 12.5 µg/mL
MIC [8]: 25 µg/mL
MIC S. marcescens [9, 13]: 25 µg/mL
MIC E. cloacae [10, 13]: 25 µg/mL
MIC A. hydrophila [11, 13]: 12.5 µg/mL

PRT1148 (NINECSSSPCLHGADCEDHINGYVCKCQPGWSGHHCE; listed as Homo sapiens)
MIC E. coli BL21 [1, 13]: 25 µg/mL
MIC C. diversus [2, 13]: 12.5 µg/mL
MIC K. pneumonia [3, 13]: 25 µg/mL
MIC M. catarrhalis [4, 13]: 12.5 µg/mL
MIC P. aeruginosa [5, 13]: 12.5 µg/mL
MIC P. vulgaris [6, 13]: 25 µg/mL
MIC P. mirabilis [7, 13]: 12.5 µg/mL
MIC [8]: 12.5 µg/mL
MIC S. marcescens [9, 13]: 12.5 µg/mL
MIC E. cloacae [10, 13]: 12.5 µg/mL
MIC A. hydrophila [11, 13]: 12.5 µg/mL

PRT67 (EIDLCYSDPCGANGRCRSREGGYTCECFEDFTGEHCE; listed as Homo sapiens)
MIC (μg/mL) E. coli BL21 ([1]; E. coli BL21, 96-well plate, 5×10^5 CFU/mL, 37° C., 10 h): 50 µg/mL
MIC (μg/mL) C. diversus ([2]; Citrobacter diversus, 96-well plate, 5×10^5 CFU/mL, 37° C., 10 h): 12.5 µg/mL
MIC (μg/mL) K. pneumonia ([3]; Klebsiella pneumonia, 96-well plate, 5×10^5 CFU/mL, 37° C., 10 h): 25 µg/mL
MIC (μg/mL) M. catarrhalis ([4]; Moraxella catarrhalis, 96-well plate, 5×10^5 CFU/mL, 37° C., 10 h): 25 µg/mL
MIC (μg/mL) P. aeruginosa ([5]; Pseudomonas aeruginosa, 96-well plate, 5×10^5 CFU/mL, 37° C., 10 h): 12.5 µg/mL
MIC (μg/mL) P. vulgaris ([6]; Proteus vulgaris, 96-well plate, 5×10^5 CFU/mL, 37° C., 10 h): 12.5 µg/mL
MIC (μg/mL) P. mirabilis ([7]; Proteus mirabilis, 96-well plate, 5×10^5 CFU/mL, 37° C., 10 h): 50 µg/mL
MIC [8]: 12.5 µg/mL
MIC (μg/mL) S. marcescens ([9]; Serratia marcescens, 96-well plate, 5×10^5 CFU/mL, 37° C., 10 h): 50 µg/mL
MIC (μg/mL) E. cloacae ([10]; Enterobacter cloacae, 96-well plate, 5×10^5 CFU/mL, 37° C., 10 h): 50 µg/mL
MIC (μg/mL) A. hydrophila ([11]; Aeromonas hydrophila, 96-well plate, 5×10^5 CFU/mL, 37° C., 10 h): 25 µg/mL

PRT1142 (DVNKCKISPCLDEENCVYRTDGYNCLCAPGYTGINCE; listed as Homo sapiens)
MIC E. coli BL21 [1, 13]: 50 µg/mL
MIC C. diversus [2, 13]: 50 µg/mL
MIC K. pneumonia [3, 13]: 12.5 µg/mL
MIC M. catarrhalis [4, 13]: 25 µg/mL
MIC P. aeruginosa [5, 13]: 25 µg/mL
MIC P. vulgaris [6, 13]: 25 µg/mL
MIC P. mirabilis [7, 13]: 12.5 µg/mL
MIC [8]: 25 µg/mL
MIC S. marcescens [9, 13]: 50 µg/mL
MIC E. cloacae [10, 13]: 25 µg/mL
MIC A. hydrophila [11, 13]: 25 µg/mL
